Reference: patent EP4620962A1, “PEPTIDE HAVING ACTIVITIES TO PROMOTE HAIR GROWTH AND AMELIORATE DAMAGED HAIR, AND USE THEREOF” (Caregen Co., Ltd., priority 2022, dated 2025)

Key:
[1] = tested on: human hair follicle dermal papilla cells (HFDPCs); assay: Proliferation of hair follicle dermal papilla cells (MTT); type: cell-based; details: 5 µM, or 50 µM, 72 hours, absorbance at 540 nm, FIGS. 1 and 2
Description: In this experimental example, effects of a peptide according to an embodiment on proliferation of human hair follicle dermal papilla cells were examined by evaluating a change in viability of the human hair follicle dermal papilla cells (HFDPCs). Specifically, human hair follicle dermal papilla cells were seeded on a 96-well plate at a density of 4×10^3 cells/well, followed by incubation in a mesenchymal stem cell complete medium for 24 hours. Subsequently, the culture medium was replaced with a serum free mesenchymal stem cell complete medium, followed by incubation for 24 hours. Thereafter, a peptide according to an embodiment was aliquoted thereinto at a concentration of […], 5 µM, or 50 µM, followed by incubation for 72 hours at 37 °C. Then, the culture was washed with PBS, and 10 µL of a 5 mg/ml MTT solution was aliquoted into each well. After incubating the culture in a CO2 incubator for 4 hours, the culture medium was removed, and 100 µL of dimethyl sulfoxide (DMSO) was added thereto, followed by stirring for 10 minutes. Thereafter, absorbance was measured at a wavelength of 540 nm by using a spectrophotometer. Meanwhile, a untreated group was used as a control, and a group treated with 1 µM EGF was used as a positive control.

ERF and AKT = assay: Western blot of proliferation-related factors (phospho-AKT, phospho-ERK) in hair follicle dermal papilla cells; type: cell-based, human; details: 5 µM, or 50 µM, 24 hours, FIGS. 3 and 4
Description: In this experimental example, effects of a peptide according to an embodiment on activation of factors related to proliferation of human hair follicle dermal papilla cells were examined. Specifically, human hair follicle dermal papilla cells were seeded on a 6-well plate at a density of 4×10^5 cells/well, followed by incubation in a mesenchymal stem cell complete medium for 24 hours. Thereafter, a peptide according to an embodiment was aliquoted thereinto at a concentration of […], 5 µM, or 50 µM, followed by incubation for 24 hours at 37 °C. Then, the culture was washed with PBS, and 100 µL of a lysis buffer to prepare a cell lysate. Subsequently, bicinchoninic acid (BCA) was quantified to prepare an equal amount of a protein sample, followed by electrophoresis using a 10 % SDS-PAGE gel. Thereafter, proteins separated by the SDS-PAGE were transferred to a PVDF membrane, and the reaction was blocked using a 5 % skim milk at room temperature for 30 minutes. Then, phospho-AKT and phospho-ERK (cell signaling, USA) antibodies were diluted in a 3 % BSA at 1:1000 and reacted with the blocked PVDF membrane at 4 °C for 16 hours. Subsequently, the reactants were washed with 0.1 % PBS-T (0.1 % Tween-20 in PBS) three times each for 15 minutes and reacted for 1 hour with a secondary antibody diluted with 5 % skim milk at 1:2000. […]

beta-catenin = assay: Nuclear beta-catenin Western blot in hair follicle dermal papilla cells; type: cell-based, human; details: nuclear proteins, HDAC1 as nuclear marker, FIGS. 5 and 6
Description: In this experimental example, effects of a peptide according to an embodiment on proliferation mechanism of human hair follicle dermal papilla cells were examined. Specifically, human hair follicle dermal papilla cells were incubated in the same manner as in Experimental Example 2-2, and treated with a peptide according to an embodiment. Then, nuclear proteins were isolated from the culture by using a nuclear protein extraction kit (Thermo scientific, USA). Subsequently, expression levels of proteins were examined in the same manner as in Experimental Example 2-2 by using beta-catenin (cell signaling, USA) and HDAC1 (santa cruz, USA) antibodies. Meanwhile, a untreated group was used as a control, and a group treated with 10 ng/mL recombinant human Wnt-3a protein (rhWnt-3a, R&D systems (USA, MN)) was used as a positive control.

[2] = tested on: LEF-1, c-Myc, and cyclin D1; assay: RT-PCR of beta-catenin downstream target genes in hair follicle dermal papilla cells; type: cell-based, human; details: RNA level, FIG. 7 (Peptide-1: c-Myc, cyclin D1), FIG. 8 (Peptide-2: LEF-1, c-Myc, cyclin D1)
Description: In addition, a change in expression levels of lymphoid enhancer-binding factor-1 (LEF-1), c-Myc, and cyclin D1, which are downstream target genes of activating mechanism of beta-catenin, was examined. To this end, human hair follicle dermal papilla cells were incubated in the same manner in Experimental Example 2-2 and treated with a peptide according to an embodiment. Thereafter, the culture was washed with PBS and treated with 300 µL of easy blue (intron, Korea) to extract RNAs. Then, the extract RNAs were quantified by Nano drop, and cDNA was synthesized by using the RNAs as a template and using a cDNA synthesis kit (enzynomics, Korea). Then, polymerase chain reaction (PCR) was carried out using primers of Table 2 below and a PCR premix (enzynomics, Korea), followed by electrophoresis using a 1.5 % agarose gel, and gene expression was examined in the RNA level by a Bio-Rad gel image system.

DKK-1 (Dickkopf-1) = assay: DKK-1 expression (Western blot) in DHT-treated hair follicle dermal papilla cells; type: cell-based, human; details: dihydrotestosterone (DHT) added; 5 µM, or 50 µM; FIGS. 9 and 10
[3] = tested on: Ha3-II, Keratin 5, Keratin 14, and Keratin 19 in human hair outer root sheath cells (HHORSCs); assay: RT-PCR of activators of outer root sheath cells; type: cell-based; details: RNA level; 5 µM, or 50 µM, 24 hours; FIGS. 11 and 12
Description: In this experimental example, effects of a peptide according to an embodiment on expression of type I cuticular Ha3-II (Ha3-II), Keratin 5, Keratin 14, and Keratin 19, which are cytokine related to activation of human hair outer root sheath cells (HHORSCs), were examined. Specifically, human hair outer root sheath cells were seeded on a 6-well plate at a density of 4×10^5 cell/well, followed by incubation for 24 hours in a mesenchymal stem cell complete media. Subsequently, the culture medium was replaced with a serum free mesenchymal stem cell complete medium, followed by incubation for 24 hours. Thereafter, a peptide according to an embodiment was aliquoted thereinto at a concentration of […], 5 µM, or 50 µM, followed by incubation for 24 hours at 37 °C. Then, gene expression was examined in the RNA level in the same manner as in Experimental Example 2-3 by using primers of Table 3 below. Meanwhile, a untreated group was used as a control, and a group treated with 50 nM EGF was used as a positive control.

[4] = tested on: HOXC13, MSX2, and FOXN1 in human hair germinal matrix cells (HHGMCs); assay: RT-PCR of activators of germinal matrix cells; type: cell-based; details: RNA level; 5 µM, or 50 µM, 24 hours; FIGS. 13 and 14
Description: In this experimental example, effects of a peptide according to an embodiment on expression of Homeobox protein Hox-C13 (HOXC13), Msh homeobox 2 (MSX2), and Forkhead box protein N1 (FOXN1), which are transcription factors related to activation of human hair germinal matrix cells ([…]), were examined. Specifically, human hair germinal matrix cells were seeded on a 6-well plate at a density of 4×10^5 cell/well, followed by incubation for 24 hours in a mesenchymal stem cell complete medium. Subsequently, the culture medium was replaced with a serum free mesenchymal stem cell complete medium, followed by incubation for 24 hours. Thereafter, a peptide according to an embodiment was aliquoted thereinto at a concentration of […], 5 μM, or 50 μM, followed by incubation for 24 hours at 37 °C. Then, gene expression was examined in the RNA level in the same manner as in Experimental Example 2-3 by using primers of Table 4 below. Meanwhile, a untreated group was used as a control, and a group treated with 50 nM EGF was used as a positive control.

## Arg (R)-Cys (C)-Cys (C)-Gly (G) [Peptide-1]
[1]
  proliferation of dermal papilla cells: promoted
ERF and AKT
  phosphorylation of ERF and AKT: induced
beta-catenin
  migration of beta-catenin from cytoplasm to a nucleus: confirmed
[2]
  expression of LEF-1, c-Myc, and/or cyclin D1: increased
DKK-1 (Dickkopf-1)
  expression of DKK-1: inhibited
[3]
  expression of Ha3-II, Keratin 14, and Keratin 19: increased
[4]
  expression of HOXC13, MSX2, and FOXN1: increased
